Test results reported in US10570179B2, “Substituted urea depsipeptide analogs as activators of the CLPP endopeptidase” (priority 2016, dated 2020).
Converted amounts (≈) assume the structure as drawn. Where two headings read alike, the source gives them in different places. Numbered stars: 1 amine (or outer) side, 2 acyl side, 3 side chain; on linkers, the order of the positions; unused ones are H or OH. Bridge positions count the residues as written; N and C are the ends. Square brackets hold non-standard residues; d marks the D form. Peptide text beside a SMILES is read from it. * marks the point of attachment. Piperazine(2S-CO,4-Me) = CN1CCN[C@H](C(=O)O)C1; Phe(3,5-Me2) = Cc1cc(C)cc(C[C@H](N)C(=O)O)c1; Phe(3-Me) = Cc1cccc(C[C@H](N)C(=O)O)c1; NH(4-Cl-2-F-phenyl) = Fc1cc(Cl)ccc1N*; Pro(4R-Me) = C[C@H]1CN[C@H](C(=O)O)C1; Hyp = O=C(O)[C@@H]1C[C@@H](O)CN1; NH(4-Et-phenyl) = CCc1ccc(N*)cc1; NH(4-Me-phenyl) = Cc1ccc(N*)cc1; aThr = C[C@H](O)[C@H](N)C(=O)O; Pip = O=C(O)[C@@H]1CCCCN1; X3 = c1cc2c(cc1N*)OCCO2; CO = O=C([*:1])[*:2]

How the values were obtained:
S. aureus ClpP (Sa-ClpP) = molecular target: T1, S. aureus ClpP (Sa-ClpP) (Staphylococcus aureus, UniProt Q2G036); test: Casein-BODIPY digestion assay (ClpP activation); format: biochemical
T1 construct: made in house; host or cells: E. coli BL21 (DE3)
T1 sequence (Q2G036 whole entry): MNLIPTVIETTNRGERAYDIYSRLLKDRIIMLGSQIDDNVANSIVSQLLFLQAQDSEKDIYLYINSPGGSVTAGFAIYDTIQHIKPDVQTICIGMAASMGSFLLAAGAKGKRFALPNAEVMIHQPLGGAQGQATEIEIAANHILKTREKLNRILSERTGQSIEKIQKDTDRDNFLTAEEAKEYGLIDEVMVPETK

E. faecails = test: Minimal inhibitory concentration, microbroth dilution; format: cell-based; conditions: Enterococcus faecalis
Outline: (§1)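 MIC is recorded by eye as the lowest drug concentration that stops bacterial growth. Compound is serially diluted twofold in broth, starting at 200 μM final, and bacteria are added at roughly 10^5 cfu/mL. Incubation runs overnight at 37 °C under aerobic conditions, per CLSI guidance.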

MRSA NRS70 = test: as above; format: cell-based; conditions: Staphylococcus aureus
Outline: as §1

S. aureus ATCC 29213 = test: as above; format: cell-based; conditions: Staphylococcus aureus
Outline: as §1

S. aureus USA 300 = test: as above; format: cell-based; conditions: Staphylococcus aureus
Outline: as §1

Plasma stability assay = format: in vitro ADME, mouse
Outline: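 Compounds at 10 μM final in human or mouse plasma, incubated at 37 °C and sampled at 0, 3, 24 and 48 h in triplicate. Reactions quenched with cold acetonitrile containing warfarin internal standard; parent measured by LC-MS. Half-life from least-squares first-order fit.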

[1] = MIC, read-out: Minimal Inhibitory Concentrations (μM) E. faecails
[2] = MIC, read-out: Minimal Inhibitory Concentrations (μM) MRSA NRS70
[3] = ATCC29213, MIC, read-out: Minimal Inhibitory Concentrations (μM) S. aureus ATCC 29213
[4] = USA300, MIC, read-out: Minimal Inhibitory Concentrations (μM) S. aureus USA 300

SMILES | EC50 (S. aureus ClpP (Sa-ClpP)) | MIC (E. faecails; [1]) | MIC (MRSA NRS70; [2]) | MIC (S. aureus ATCC 29213; [3]) | MIC (S. aureus USA 300; [4]) | Mouse (Plasma stability assay; mouse, 10 μM) | Mouse (hr) (Plasma stability assay; mouse, 10 μM) | MIC (E. faecails; read-out: Minimal Inhibitory Concentrations (μM) E. faecails, MIC) | MIC (MRSA NRS70; read-out: Minimal Inhibitory Concentrations (μM) MRSA NRS70, MIC) | MIC (S. aureus ATCC 29213; ATCC29213, read-out: Minimal Inhibitory Concentrations (μM) S. aureus ATCC 29213, MIC) | MIC (S. aureus USA 300; USA300, read-out: Minimal Inhibitory Concentrations (μM) S. aureus USA 300, MIC) | Mouse (Plasma stability assay; plasma stability half-life, mouse plasma, 37° C.)
Cc1cccc(C[C@H](NC(=O)Nc2ccc3c(c2)OCCO3)C(=O)N[C@@H]2C(=O)N3CCC[C@H]3C(=O)N3CCCC[C@H]3C(=O)N[C@@H](C)C(=O)N3C[C@H](C)C[C@H]3C(=O)O[C@H]2C)c1 [Compound 21, (S)-2-(3-(2,3-DIHYDROBENZO[B][1,4]DIOXIN-6-YL)UREIDO)-3-(M-TOLYL)-N-((2R,6S,8AS,14AS,20S,21S,23AS)-2,6,21-TRIMETHYL-5,8,14,19,23-PENTAOXOOCTADECAHYDRO-1H,5H,14H,19H-PYRIDO[2,1-I]DIPYRROLO[2,1-C:2′,1′-L][1]OXA[4,7,10,13]TETRAAZACYCLOHEXADECIN-20-YL)PROPANAMIDE] ({X3-CO}-[Phe(3-Me)][aThr]P[Pip]A[Pro(4R-Me)]; ester 2-C) | 370 ± 40 nM | 0.625 µM (≈ 0.519 µg/mL) | 0.313 µM (≈ 0.26 µg/mL) | 0.625 µM (≈ 0.519 µg/mL) | 1.25 µM (≈ 1.04 µg/mL) | >50 h |  |  |  |  |  | 
Cc1cc(C)cc(C[C@H](NC(=O)Nc2ccc(Cl)cc2F)C(=O)N[C@@H]2C(=O)N3CCC[C@H]3C(=O)N3CCCC[C@H]3C(=O)N[C@@H](C)C(=O)N3C[C@H](C)C[C@H]3C(=O)O[C@H]2C)c1 [Compound 4, (S)-2-(3-(4-CHLORO-2-FLUOROPHENYL)UREIDO)-3-(3,5-DIMETHYLPHENYL)-N-((2R,6S,8AS,14AS,20S,21S,23AS)-2,6,21-TRIMETHYL-5,8,14,19,23-PENTAOXOOCTADECAHYDRO-1H,5H,14H,19H-PYRIDO[2,1-I]DIPYRROLO[2,1-C:2′,1′-L][1]OXA[4,7,10,13]TETRAAZACYCLOHEXADECIN-20-YL)PROPANAMIDE] ({NH(4-Cl-2-F-phenyl)-CO}-[Phe(3,5-Me2)][aThr]P[Pip]A[Pro(4R-Me)]; ester 2-C) | 430 ± 20 nM | 1.25 µM (≈ 1.05 µg/mL) | 0.156 µM (≈ 0.131 µg/mL) | 0.625 µM (≈ 0.524 µg/mL) | 0.625 µM (≈ 0.524 µg/mL) |  | >>48 hr |  |  |  |  | 
Cc1ccc(NC(=O)N[C@@H](Cc2cccc(C)c2)C(=O)N[C@@H]2C(=O)N3C[C@H](O)C[C@H]3C(=O)N3CCN(C)C[C@H]3C(=O)N[C@@H](C)C(=O)N3C[C@H](C)C[C@H]3C(=O)O[C@H]2C)cc1 [Compound 30, (S)—N-((6AS,8R,12S,13S,15AS,17R,21S,23AS)-8-HYDROXY-2,13,17,21-TETRAMETHYL-6,11,15,20,23-PENTAOXOOCTADECAHYDRO-2H,6H,11H,15H-PYRAZINO[2,1-I]DIPYRROLO[2,1-C:2′,1′-L][1]OXA[4,7,10,13]TETRAAZACYCLOHEXADECIN-12-YL)-3-(M-TOLYL)-2-(3-(P-TOLYL)UREIDO)PROPANAMIDE] ({NH(4-Me-phenyl)-CO}-[Phe(3-Me)][aThr][Hyp][Piperazine(2S-CO,4-Me)]A[Pro(4R-Me)]; ester 2-C) | 290 ± 290 nM |  |  |  |  |  |  | 0.313 µM (≈ 0.256 µg/mL) | 2.5 µM (≈ 2.04 µg/mL) | 0.625 µM (≈ 0.511 µg/mL) | 2.5 µM (≈ 2.04 µg/mL) | >50 h
CCc1ccc(NC(=O)N[C@@H](Cc2cccc(C)c2)C(=O)N[C@H]2COC(=O)[C@@H]3C[C@@H](C)CN3C(=O)[C@H](C)NC(=O)[C@@H]3CN(C)CCN3C(=O)[C@@H]3CCCN3C2=O)cc1 [Compound 16, (S)-2-(3-(4-ETHYLPHENYL)UREIDO)-3-(M-TOLYL)-N-((6AS,12S,15AS,17R,21S,23AS)-2,17,21-TRIMETHYL-6,11,15,20,23-PENTAOXOOCTADECAHYDRO-2H,6H,11H,15H-PYRAZINO[2,1-I]DIPYRROLO[2,1-C:2′,1′-L][1]OXA[4,7,10,13]TETRAAZACYCLOHEXADECIN-12-YL)PROPANAMIDE] ({NH(4-Et-phenyl)-CO}-[Phe(3-Me)]SP[Piperazine(2S-CO,4-Me)]A[Pro(4R-Me)]; ester 2-C) | 630 ± 100 nM | 0.156 µM (≈ 0.125 µg/mL) | 0.313 µM (≈ 0.251 µg/mL) | 1.25 µM (≈ 1 µg/mL) | 0.625 µM (≈ 0.501 µg/mL) | 6.86 ± 0.7 h |  |  |  |  |  | 
